# From patent US6723897B2, “Methods for controlling gibberellin levels” (Monsanto Technology, LLC, priority 1998, dated 2004)
# Legend:
# [1] = Distribution of 14C label in soybean plant parts after seed treatment
# Description: (§1) ^14C-radiolabelled compounds are obtained from Lew Mander (Australian National University). ^14C-GA3 is dissolved in water:ethanol, 80:20, v/v; ^14C-GA9 and ^14C-GA12 are dissolved in 100% ethanol. Seeds of Asgrow 3237 soybeans are treated separately with solutions of each of the ^14C-radiolabelled compounds (1.7-6.8 μg; 10-40 ppm; 111,000-2,000,000 dpm/seed) by placing one to four μl of the dosing solution directly on the seed coat (^14C-GA3, GA9, and GA12), or on the hilum portion of the seed (^14C-GA3). After evaporation of the carrier solvent (approx. one hour), the treated seed is planted in containers containing approximately 30 gm of Metromix-350, and transferred to a growth chamber. Plants are grown under a 12 hour light/12 hour dark regime at 92° F. (33° C.)and 75% humidity. The pattern of uptake and translocation of ^14C-radioactivity in treated seed is monitored up to 12 days past initial treatment. For most experiments, three replicate plants are harvested at one hour after treatment, one day after treatment (DAT), two DAT, three DAT, six or seven DAT, and 12 DAT. At the time of each harvest, plants are divided into leaves, epicotyl, cotyledon, hypocotyl, and roots. The level of ^14C-radioactivity in different plant parts is determined by extraction of plant tissues with aqueous methanol and scintillation counting. The extent of metabolism of the ^14C-labelled GA compounds in planta is determined by HPLC analysis of plant extracts. The details are as follows.
# (§2) The general extraction procedure consisted of blending the plant parts in a high speed polytron tissue homogenizer for 1-5 minutes with 10-20 ml of ice-cold methanol:water, 80:20, v/v, followed by vacuum filtration through a Whatman glass fiber filter. The filter cake is re-extracted as necessary using the procedure described above until an insignificant amount of radioactivity is removed. Prior to combining the extracts from each sample, aliquots are weighed and analyzed by liquid scintillation counting (LSC) to determine the amount of extracted radioactivity in each extract. Aliquots of the air-dried filter cakes are combusted and analyzed by LSC in order to determine the amount of non-extracted radioactivity. The extracts are combined and, when necessary, concentrated by rotary evaporation at a bath temperature of less than 35° C. to a small volume for analysis by HPLC to determine the extent of metabolism of the ^14C-labelled GA compounds in planta.
# [2] = Half-lives of 14C-labelled GA compounds in planta; details: ^14C-labelled compound on seed of Asgrow 3237 soybeans
# Description: as §1, with “At the time of each harvest, plants are divided into leaves, epicotyl, cotyledon, hypocotyl, and roots.” left out, “The details are as follows.” left out
# as §2, with “The extracts are combined and, when necessary, concentrated by rotary evaporation at a bath temperature of less than 35° C. to a small volume for analysis by HPLC to determine the extent of metabolism of the ^14C-labelled GA compounds in planta.” left out
# [3] = test system: constitutively GA-deficient transgenic dwarf soybean line 719; assay: Field trial of seed coating application rates, GA-deficient soybean; assay type: in vivo, Glycine max; details: for 719 Height, cm, Heavy soil / 719 Height, cm, Light soil / No. 719 Emerged, Heavy soil / No. 719 Emerged, Light soil / No. 719 Not Rescued, Heavy soil / No. 719 Not Rescued, Light soil: seed coating
# Description: GA3, GA3-3-acetate, GA5, GA9, and GA12 are evaluated in further field trials. […] The objectives of these tests are: 1) to determine if seed coatings, as compared to imbibition, of GA compounds facilitate rescue of constitutively GA-deficient transgenic dwarf soybeans (transgenic lines 719−2 plus 719+17) without causing elongation of wild-type soybeans (line A4922), and 2) to determine the seed treatment rate ranges for each of the selected GA compounds that would provide rescue of constitutively GA-deficient transgenic dwarf soybeans (transgenic lines 719−2 plus 719+17) without causing elongation of wild-type soybeans (line A4922).
# Seeds are treated with GA3, GA5, GA9, GA12, and GA3-3-acetate at rates of 0, 0.1, 1, 10, and 100 μg/seed. These GA compounds are applied to the seeds using a Hege 11 seed treater (Hans-Ulrich Hege GmbH & Co., Waldenburg, Germany); 100% acetone is used as the carrier solvent. The amount of liquid introduced into the seed treater is six fluid ounces/100 lbs seed rate. In addition, GA12 is tested at 50 μg/seed. The untreated control (UTC) consisted of dry, untreated seeds. Seeds of constitutively GA-deficient transgenic dwarf soybean line 719 and wild-type A4922 are sown in both light and heavy soil. The planting depth is 0.5 to 1 inch (1.27 to 2.54 cm); watering is via drip irrigation. The experiment is carried out in three repetitions, using 25 seeds/plot (one five foot (152.4 cm) long row) for line 719, and 75 seeds/plot (two eight foot (243.8 cm) rows) for line A4922. Observations included total emergence, number of dwarfs not rescued, uniformity in plant height, average plant height, visual notes, and digital photos.
# In all the experiments reported in Tables 17-24, treatments are replicated three times in a randomized block design. Data are analyzed using LSD (least significant difference) 0.05 probability using the PRM 5.0 Statistical Analysis Program (SAS Institute, North Carolina).
# [4] = test system: AX5/antisense CPScc soybean line 234 (R3); assay: Hilum seed treatment of epicotyl-intensive GA-deficient soybean, height (FIG. 43); assay type: in vivo, Glycine max; details: 10 DAP
# Description: The purpose of this study is to evaluate the ability of four GA compounds, i.e., GA9, GA5, GA3-3-acetate, and GA12, to restore normal growth in AX5/antisense CPScc soybean lines when applied as a seed treatment.
# Line 46 plants are R2; Line 234 plants are R3.
# The GA compounds are dissolved in ethanol and applied to the hilum of dry seeds as not more than 10 μl droplets with a syringe. If multiple applications are made to seeds, the previous application is allowed to dry before a subsequent application is made.
# Seeds are sown 1 inch deep in commercial potting soil (Metromix 200) in 4-inch plastic pots and placed in a greenhouse set for 12 hours artificial light and a temperature regime of 85° F. (29° C.) day and 75° F. night (24° C.). Pots are watered as necessary by overhead hand watering. Hypocotyl and epicotyl measurements are made for each plant at various stages of plant growth.
# The lower dashed horizontal line represents the total height of untreated AX5 line 234 soybeans. The upper dashed horizontal line represents the total height of untreated wild-type A4922 soybeans. Measurements are made 10 days after planting.
SMILES,"719 Height, cm, Heavy soil ([3]; 0.1 μg compound per seed)","719 Height, cm, Light soil ([3]; 0.1 μg compound per seed)","No. 719 Emerged, Heavy soil ([3]; 0.1 μg compound per seed)","No. 719 Emerged, Light soil ([3]; 0.1 μg compound per seed)","No. 719 Not Rescued, Heavy soil ([3]; 0.1 μg compound per seed)","No. 719 Not Rescued, Light soil ([3]; 0.1 μg compound per seed)","719 Height, cm, Heavy soil ([3]; 1 μg compound per seed)","719 Height, cm, Light soil ([3]; 1 μg compound per seed)","No. 719 Emerged, Heavy soil ([3]; 1 μg compound per seed)","No. 719 Emerged, Light soil ([3]; 1 μg compound per seed)","No. 719 Not Rescued, Heavy soil ([3]; 1 μg compound per seed)","No. 719 Not Rescued, Light soil ([3]; 1 μg compound per seed)","719 Height, cm, Heavy soil ([3]; 10 μg compound per seed)","719 Height, cm, Light soil ([3]; 10 μg compound per seed)","No. 719 Emerged, Heavy soil ([3]; 10 μg compound per seed)","No. 719 Emerged, Light soil ([3]; 10 μg compound per seed)","No. 719 Not Rescued, Heavy soil ([3]; 10 μg compound per seed)","No. 719 Not Rescued, Light soil ([3]; 10 μg compound per seed)","719 Height, cm, Heavy soil ([3]; 100 μg compound per seed)","719 Height, cm, Light soil ([3]; 100 μg compound per seed)",other results
C=C1C[C@]23C[C@H]1CC[C@H]2[C@]1(C)CCC[C@@](C)(C(=O)O)[C@H]1[C@@H]3C(=O)O [GA12],4.0 d-i cm,4.0 g·cm,20.7 a-d,22.3 a,4.3 bc,6.3 b,3.3 e-i cm,4.0 g·cm,21.0 abc,22.0 a,5.3 ab,3.7 cd,3.0 f-i cm,2.3 cm·h,22.3 ab,21.0 ab,1.7 def,1.7 efg,2.7 ghi cm,2.0 cm·h,"^14C Label Distribution (% of dose), Cotyledon ([1]; 3 DAP): 55 % of dose; ^14C Label Distribution (% of dose), Hypocotyl ([1]; 3 DAP): 1.7 % of dose; ^14C Label Distribution (% of dose), Root ([1]; 3 DAP): 3.5 % of dose; ^14C Label Distribution (% of dose), Cotyledon ([1]; 12 DAP): 45 % of dose; ^14C Label Distribution (% of dose), Epicotyl ([1]; 12 DAP): 0.2 % of dose; ^14C Label Distribution (% of dose), Hypocotyl ([1]; 12 DAP): 0.9 % of dose; ^14C Label Distribution (% of dose), Leaves ([1]; 12 DAP): 0.7 % of dose; ^14C Label Distribution (% of dose), Root ([1]; 12 DAP): 3.0 % of dose; Half-life (days) in planta [2]: <1 days; 719 Height, cm, Heavy soil ([3]; 50 μg compound per seed): 3.3 e-i cm; 719 Height, cm, Light soil ([3]; 50 μg compound per seed): 2.3 cm·h; No. 719 Emerged, Heavy soil ([3]; 50 μg compound per seed): 23.7 a; No. 719 Emerged, Light soil ([3]; 50 μg compound per seed): 22.3 a; No. 719 Not Rescued, Heavy soil ([3]; 50 μg compound per seed): 5.0 bc; No. 719 Not Rescued, Light soil ([3]; 50 μg compound per seed): 3.0 cde; No. 719 Emerged, Heavy soil ([3]; 100 μg compound per seed): 20.7 a-d; No. 719 Emerged, Light soil ([3]; 100 μg compound per seed): 21.3 ab; No. 719 Not Rescued, Heavy soil ([3]; 100 μg compound per seed): 2.0 de; No. 719 Not Rescued, Light soil ([3]; 100 μg compound per seed): 1"
C=C1C[C@]23C[C@@]1(O)CC[C@H]2[C@@]12C=C[C@H](OC(C)=O)[C@@](C)(C(=O)O1)[C@H]2[C@@H]3C(=O)O [GA3-3-acetate],3.3 e-i cm,5.3 efg cm,18.7 a-d,21.0 ab,0.3 ef,0.7,6.0 cd cm,6.3 e cm,21.3 abc,21.7 ab,0 f,0.3,9.0 ab cm,223 cm·h,17.7 a-e,20.3 a-d,0 f,0,8.7 ab cm,12.0 b cm,"No. 719 Emerged, Heavy soil ([3]; 100 μg compound per seed): 16.7 b-e; No. 719 Emerged, Light soil ([3]; 100 μg compound per seed): 17.7 b-f; No. 719 Not Rescued, Heavy soil ([3]; 100 μg compound per seed): 0 f; No. 719 Not Rescued, Light soil ([3]; 100 μg compound per seed): 0; preferred seed coating rate in this experiment ([3]; judged on lines 719 and A4922, light and heavy soil): about 1 μg per seed; restoration of height of line 234 soybeans ([4]; hypocotyl and epicotyl elongation, hypocotyl to epicotyl ratio not maintained): restore normal height to line 234 soybeans; response of line 234 height ([4]; seed treatment rates between 0.1 and 1 μg/seed): generally similar response"
